We go through four compounds from paper PMC9243654 (Frontiers in Nutrition, 2022).

For series [1] the following is noted: ref PubChem database, cited from earlier work.
A further series is described as follows: in vitro. Put shortly:
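PAMPA-BBB with lipid membrane of PBL and cholesterol in n-dodecane; donor contains extract in EtOH/PBS pH 7.4 (1:1), acceptor PBS. Incubated 4 h at 37°C in the dark; donor and acceptor analysed by UHPLC-Q-TOF-MS, Pe calculated from acceptor and equilibrium concentrations.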

The conditions of series [2]: cited from earlier work.
[3] abbreviates: PAMPA, pH 7.4, PAMPA-BBB log Pe (cm s−1).
Where [4] appears, read: compounds from Ginkgo biloba L. extract, ref Könczöl et al. ([69]).

A word on the Log P: it is the decadic logarithm of the partition coefficient of the neutral form, usually between octanol and water. By Papp is commonly meant the rate of passage across a membrane or cell layer, normalised by area and donor concentration. A low value points to slow passage.

The structures appear in SMILES notation. Like-named read-outs stand apart in the source and are kept apart here.

With `COc1cc(-c2oc3cc(O)cc(O)c3c(=O)c2O)ccc1O` [Isorhamnetin], in series [1] (compounds of RSFE extract, octanol-water partition coefficient), the “Log P” value is given as 1.9. In the series “in vitro” (PAMPA), the “Cross BBB potential” value is recorded as “+++ (key: -: not detected in acceptor; +: log Pe > −6.5; ++: log Pe > −5.5; +++: log Pe > −4.5)”. For the same compound, the Papp in the series “in vitro” (setting [3]) is 49 ×10⁻⁶ cm/s. Moreover, in series [2] (setting [4]), the “PAMPA-BBB logPe” value is on record as −5.46.
`O=c1cc(-c2ccc(O)cc2)oc2cc(O)cc(O)c12` [Apigenin] had a Papp in the series “in vitro” (setting [3]) of 26.3 ×10⁻⁶ cm/s. In addition, the “Cross BBB potential” value in the series “in vitro” (compound within RSFE extract) is given as “++ (log Pe > −5.5)”. Besides, the “PAMPA-BBB logPe” value in series [2] (setting [4]) is reported as −5.35.
`COc1ccc2c3c1O[C@H]1C[C@@H](O)C=C[C@@]31CCN(C)C2` [galantamine, reference compound]: the “logPe (cm s^−1)” value in series [2] (therapeutic drug for comparison, ref [70]) is given as “–5.35 ± 0.02 cm s^−1”.
`O=c1c(O)c(-c2ccc(O)cc2)oc2cc(O)cc(O)c12` [Kaempferol]: the “Log P” value in series [1] (compounds identified in LPLE extract), in series [1] (compounds of ASFE extract) and in series [1] (compounds of KD extract) was 1.9 each time. Further, the Papp at 4 h in the series “in vitro” (PAMPA, pH 7.4, PAMPA-BBB log Pe (cm s−1), compound within ASFE extract, 4 h, 37°C, PBS pH 7.4) was 2.29 ×10⁻⁶ cm/s; in “in vitro” (PAMPA, pH 7.4, PAMPA-BBB log Pe (cm s−1), compound within KD extract, 4 h, 37°C, PBS pH 7.4), 14.8 ×10⁻⁶ cm/s; in “in vitro” (PAMPA, pH 7.4, PAMPA-BBB log Pe, compound within LPLE (Nothofagus pumilio, lenga PLE extract), N.D = not detected in acceptor), 21.4 ×10⁻⁶ cm/s. Besides, in series [2] (PAMPA), the “PAMPA-BBB logPe” value is recorded as −5.13.
